Laboratory results published in US20220324865A1 (Bayer Aktiengesellschaft, priority 2018, published 2022).

molecular target: T1, human EP3 receptor (Homo sapiens, UniProt P43115); assay: Cellular in vitro assay for determining EP3 receptor activity (human EP3 cell line, sulprostone-stimulated calcium luminescence); format: cell-based; conditions: CHO cells expressing human EP3 and mitochondrial Clytin; antagonist mode, sulprostone at EC50; read-out: EP3 CHO mtCLY ANTAG IC50
T1 construct: expressed in transfected cells; host or cells: CHO K1 (Chinese Hamster Ovary), stably co-transfected with Galpha16 and mitochondrial clytin
T1 sequence (P43115 1-390): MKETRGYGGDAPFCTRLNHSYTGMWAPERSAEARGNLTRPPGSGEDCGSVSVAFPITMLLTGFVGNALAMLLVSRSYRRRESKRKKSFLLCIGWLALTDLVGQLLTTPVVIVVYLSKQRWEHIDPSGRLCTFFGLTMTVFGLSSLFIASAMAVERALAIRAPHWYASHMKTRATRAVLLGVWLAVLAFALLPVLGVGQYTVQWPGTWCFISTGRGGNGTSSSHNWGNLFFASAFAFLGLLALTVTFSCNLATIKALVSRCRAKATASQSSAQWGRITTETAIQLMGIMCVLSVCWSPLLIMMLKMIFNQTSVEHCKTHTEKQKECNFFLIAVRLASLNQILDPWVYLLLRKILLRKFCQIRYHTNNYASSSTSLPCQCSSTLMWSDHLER
Method in brief: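 CHO K1 cells stably expressing human EP3 with Gα16 and mitochondrial Clytin, loaded overnight with coelenterazine. Compounds added 10 min before sulprostone at its EC50; antagonism read immediately as reduced calcium-driven luminescence, quadruplicate points.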

IC50 [nM]	Structure (SMILES)
2.9	CC(C)CN1CC(NC(=O)c2nn3cc(-c4ccc5ccccc5c4)[nH]c(=O)c3c2C(F)(F)F)(c2ccc(F)cc2)C1 [Example 1-128, N-[3-(4-Fluorophenyl)-1-(2-methylpropyl)azetidin-3-yl]-6-(naphthalen-2-yl)-4-oxo-3-(trifluoromethyl)-4,5-dihydropyrazolo[1,5-a]pyrazine-2-carboxamide]
3.45	Cc1cc(-c2cn3nc(C(=O)N[C@H](C)C(C)C)c(C4CC4)c3c(=O)[nH]2)ccc1Cl [6-336]
4.3	COc1ccccc1C(C)NC(=O)c1nn2c(C)c(-c3ccc4ccccc4c3)[nH]c(=O)c2c1C (centres unmarked) [Example 3-28, N-[1-(2-Methoxyphenyl)ethyl]-3,7-dimethyl-6-(2-naphthyl)-4-oxo-5H-pyrazolo[1,5-a]pyrazine-2-carboxamide]
1.3	Cc1nc(-c2cn3nc(C(=O)N[C@@H](c4ccc(F)cc4)C(F)(F)CO)c(C4CC4)c3c(=O)[nH]2)ccc1Cl [6-591]
2	Cc1cccc2ncc(-c3cn4nc(C(=O)NCc5cnn(C)c5)c(C(C)C)c4c(=O)[nH]3)cc12 [Example 4-37, N-[(1-Methyl-1H-pyrazol-4-yl)methyl]-6-(5-methylquinolin-3-yl)-4-oxo-3-(propan-2-yl)-4,5-dihydropyrazolo[1,5-a]pyrazine-2-carboxamide]
2.1	Cc1cc(C)nc(CNC(=O)c2nn3cc(-c4cnc5cccc(C)c5c4)[nH]c(=O)c3c2C(C)C)n1 [Example 4-60, N-[(4,6-Dimethylpyrimidin-2-yl)methyl]-6-(5-methylquinolin-3-yl)-4-oxo-3-(propan-2-yl)-4,5-dihydropyrazolo[1,5-a]pyrazine-2-carboxamide]
1.13	Cc1ccc(-c2cn3nc(C(=O)NC4CCN(CC(F)F)C4)c(C4CC4)c3c(=O)[nH]2)cc1C (centres unmarked) [6-453]
2.65	O=C(N[C@@H](c1ccc(F)cc1)C(F)(F)CO)c1nn2cc(-c3cc(Cl)c(Cl)cc3F)[nH]c(=O)c2c1C1CC1 [6-582]
4.05	Cc1ccc(-c2cn3nc(C(=O)NCC(C)(N)C(F)(F)F)c(C(F)(F)F)c3c(=O)[nH]2)cc1Cl (racemic) [6-169]
2.9	Cc1ccc(-c2cn3nc(C(=O)N[C@@H](c4ccc(F)cc4)C(C)(C)O)c(C)c3c(=O)[nH]2)c(F)c1C [Example 1-164, 6-(2-Fluoro-3,4-dimethylphenyl)-N-[(15)-1-(4-fluorophenyl)-2-hydroxy-2-methylpropyl]-3-methyl-4-oxo-4,5-dihydropyrazolo[1,5-a]pyrazine-2-carboxamide]
1.65	COc1ccc(C(C)NC(=O)c2cc3c(=O)[nH]c(-c4ccc5ccccc5c4)cn3n2)cc1 (centres unmarked) [Example 2-3, N-[1-(4-Methoxyphenyl)ethyl]-6-(2-naphthyl)-4-oxo-4,5-dihydropyrazolo[1,5-a]pyrazine-2-carboxamide]
0.983	Cc1ccc(-c2cn3nc(C(=O)N[C@@H](c4ccc(F)cc4)C(C)(C)O)c(C4CC4)c3c(=O)[nH]2)cc1F [Example 1-158]
5.8	Cc1cccc2ncc(-c3cn4nc(C(=O)NC5(c6ccc(F)cc6)CN(C)C5)c(C(C)C)c4c(=O)[nH]3)cc12 [Example 1-25, N-[3-(4-Fluorophenyl)-1-methylazetidin-3-yl]-6-(5-methylquinolin-3-yl)-4-oxo-3-(propan-2-yl)-4,5-dihydropyrazolo[1,5-a]pyrazine-2-carboxamide]
1.8	COc1cccc(C(CCO)NC(=O)c2nn3c(C)c(-c4ccc5ccccc5c4)[nH]c(=O)c3c2C)c1 (centres unmarked) [Example 3-39, N-[3-Hydroxy-1-(3-methoxyphenyl)propyl]-3,7-dimethyl-6-(2-naphthyl)-4-oxo-5H-pyrazolo[1,5-a]pyrazine-2-carboxamide]
1.25	O=C(NC1(c2ccc(F)cc2)CN(C2CC2)C1)c1nn2cc(-c3ccc(Cl)c(F)c3)[nH]c(=O)c2c1C1CC1 [6-104]
5.25	Cc1ccc(-c2[nH]c(=O)c3c(C4CC4)c(C(=O)N[C@@H](c4ccc(F)cc4)C(C)(C)O)nn3c2F)cc1Cl [6-664]
4.75	Cc1ccc(-c2cn3nc(C(=O)NC4CCN(CC(F)F)C4)c(C4CC4)c3c(=O)[nH]2)cc1C (single isomer, unassigned) [6-454]
1.5	O=C(N[C@@H](c1ccc(F)cc1)C(F)(F)CO)c1nn2cc(-c3ccc(Cl)c(F)c3)[nH]c(=O)c2c1C1CCC1 [6-571]
5.7	O=C(NC(CCn1cncn1)c1ccccc1)c1cc2c(=O)[nH]c(-c3ccc4ccccc4c3)cn2n1 (centres unmarked) [6-48]
2.5	Cc1c(C(=O)NC(CO)c2ccc(Br)cc2)nn2c(C)c(-c3ccc4ccccc4c3)[nH]c(=O)c12 (centres unmarked) [Example 3-69, N-[1-(4-Bromophenyl)-2-hydroxyethyl]-3,7-dimethyl-6-(2-naphthyl)-4-oxo-5H-pyrazolo[1,5-a]pyrazine-2-carboxamide]
6.2	Cc1ccc(-c2cn3nc(C(=O)NC(C)CN4CCOCC4)c(C4CC4)c3c(=O)[nH]2)cc1C (single isomer, unassigned) [6-452]

IC50 [nM]	Structure (SMILES)
1.09	O=C(N[C@H](CCO)c1ccc(F)cc1)c1nn2cc(-c3cccc(Cl)c3)[nH]c(=O)c2c1C1CC1 [6-679]
7.8	C[C@H](CO)NC(=O)c1nn2cc(-c3ccc4ccccc4c3)[nH]c(=O)c2c1C(F)(F)F [6-525]
3	Cc1ccc(-c2cn3nc(C(=O)NC(CO)C(F)(F)F)c(C4CC4)c3c(=O)[nH]2)cc1C(F)(F)F (single isomer, unassigned) [6-249]
3.8	Cc1cccc2ncc(-c3cn4nc(C(=O)N[C@H](CCO)c5ccc(F)cc5)cc4c(=O)[nH]3)cc12 [Example 1-113, N-[(1R)-1-(4-Fluorophenyl)-3-hydroxypropyl]-6-(5-methylquinolin-3-yl)-4-oxo-4,5-dihydropyrazolo[1,5-a]pyrazine-2-carboxamide]
2.3	Cc1ccc(-c2cn3nc(C(=O)NCC(O)C(F)(F)F)c(C(F)(F)F)c3c(=O)[nH]2)cc1Cl (single isomer, unassigned) [6-159]
5.2	CC[C@H](C)NC(=O)c1nn2cc(-c3ccc(Cl)c(C)c3)[nH]c(=O)c2c1C(F)(F)F [6-216]
2.85	Cc1c(C(=O)N[C@H](C)c2ccc(F)cc2)nn2cc(-c3ccc4ccccc4c3)[nH]c(=O)c12 [Example 1-45, N-[(1R)-1-(4-Fluorophenyl)ethyl]-3-methyl-6-(naphthalen-2-yl)-4-oxo-4,5-dihydropyrazolo[1,5-a]-pyrazine-2-carboxamide]
1.5	Cc1ccc(-c2cn3nc(C(=O)NC4(c5ccc(F)cc5)CN(C)C4)c(C4CCC4)c3c(=O)[nH]2)cc1F [6-574]
7.93	O=C(N[C@H]1c2ccccc2C[C@H]1O)c1cc2c(=O)[nH]c(-c3ccc4ccccc4c3)cn2n1 [6-72]
1.36	Cc1ccc(-c2cn3nc(C(=O)N[C@H](CCO)c4ccc(F)cc4)cc3c(=O)[nH]2)cc1F [6-638]
0.495	O=C(N[C@H](CCO)c1ccc(F)cc1)c1nn2cc(-c3ccc4ccccc4c3)[nH]c(=O)c2c1Cl [Example 1-120, 3-Chloro-N-[(1R)-1-(4-fluorophenyl)-3-hydroxypropyl]-6-(naphthalen-2-yl)-4-oxo-4,5-dihydropyrazolo[1,5-a]pyrazine-2-carboxamide]
2	COc1ccc(C(CCO)NC(=O)c2nn3cc(-c4cnc5cccc(C)c5c4)[nH]c(=O)c3c2C(C)C)cc1 (centres unmarked) [Example 4-83, N-[3-Hydroxy-1-(4-methoxyphenyl)propyl]-3-isopropyl-6-(5-methyl-3-quinolyl)-4-oxo-5H-pyrazolo[1,5-a]pyrazine-2-carboxamide]
7.45	Cc1c(C(=O)N[C@@H](C)c2cnccn2)nn2c(C)c(-c3ccc4ccccc4c3)[nH]c(=O)c12 [Example 3-66, 3,7-Dimethyl-6-(naphthalen-2-yl)-4-oxo-N-[(7S)-1-(pyrazin-2-yl)ethyl]-4,5-dihydropyrazolo[1,5-a]pyrazine-2-carboxamide]
1.43	Cc1ccc(-c2cn3nc(C(=O)NCCN(C)C4CC4)c(C4CC4)c3c(=O)[nH]2)cc1C [6-661]
3.85	Cc1c(C(=O)NC(C)c2ccccc2OC(F)F)nn2c(C)c(-c3ccc4ccccc4c3)[nH]c(=O)c12 (centres unmarked) [Example 3-43, N-[1-[2-(Difluoromethoxy)phenyl]ethyl]-3,7-dimethyl-6-(2-naphthyl)-4-oxo-5H-pyrazolo[1,5-a]pyrazine-2-carboxamide]
3.05	O=C(N[C@H](CCO)c1ccc(F)cc1)c1nn2cc(-c3ccc4ccccc4c3)[nH]c(=O)c2c1C1CC1 [Example 1-144, 3-Cyclopropyl-N-[(1R)-1-(4-fluorophenyl)-3-hydroxypropyl]-6-(naphthalen-2-yl)-4-oxo-4,5-dihydropyrazolo[1,5-a]pyrazine-2-carboxamide]
4.2	O=C(NC(CO)c1ccc(F)cc1)c1cc2c(=O)[nH]c(-c3ccc4ccccc4c3)cn2n1 (centres unmarked) [Example 1-61, N-[1-(4-Fluorophenyl)-2-hydroxyethyl]-6-(2-naphthyl)-4-oxo-5H-pyrazolo[1 ,5-a]pyrazine-2-carboxamide]
0.78	Cc1ccc(-c2cn3nc(C(=O)N[C@H](C)C4CC4)c(C(F)(F)F)c3c(=O)[nH]2)cc1C [6-120]
3.75	COC(=O)C(NC(=O)c1cc2c(=O)[nH]c(-c3ccc4ccccc4c3)cn2n1)c1ccc(F)cc1 (centres unmarked) [6-17]
1.2	Cc1cc(-c2cn3nc(C(=O)N[C@@H](C)C4CC4)c(C(F)(F)C(F)(F)F)c3c(=O)[nH]2)ccc1Cl [6-478]
